In brackets after ≈: the same amount, converted by molar mass.
How the values were obtained:
Assay in all cases: MIC, broth microdilution (NCCLS)
[1] = test system: Enterococcus faecalis Enfa_29212; format: cell-based; conditions: for MIC, strain ID E: broth microdilution; for MIC: Table 10, Strain ID E (Table 8): Enterococcus faecalis Enfa_29212
Outline: (§1)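 NCCLS broth microdilution with 2-fold serial drug dilutions (methanol stocks diluted in water); inoculum 3×10^5–7×10^5 CFU/ml in CAMHB, with 2-5% lysed horse blood for S. pneumoniae. Incubation 18-24 h at 35° C., ambient air, except S. pneumoniae (5-10% CO2). MIC is lowest concentration preventing visible growth.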

[2] = test system: Haemophilus influenzae Hain_49247; format: cell-based; conditions: unit assumed; for MIC, strain ID H: broth microdilution; for MIC: Table 10, Strain ID H (Table 8): Haemophilus influenzae Hain_49247
[3] = test system: Staphylococcus aureus Stau_29213; format: cell-based; conditions: in µg/mL (unit assumed); for MIC, strain ID A: broth microdilution; for MIC: Table 10, Strain ID A (Table 8): Staphylococcus aureus Stau_29213
Outline: as §1

[4] = test system: Staphylococcus epidermidis Step_14990; format: cell-based; conditions: in µg/mL (unit assumed); for MIC, strain ID C: broth microdilution; for MIC: Table 10, Strain ID C (Table 8): Staphylococcus epidermidis Step_14990
Outline: as §1

[5] = test system: Staphylococcus epidermidis Step_f50654; format: cell-based; conditions: in µg/mL (unit assumed); for MIC, strain ID D: broth microdilution; for MIC: Table 10, Strain ID D (Table 8): Staphylococcus epidermidis Step_f50654
Outline: as §1

[6] = test system: Streptococcus pneumoniae Stpn_Erm S 4297; format: cell-based; conditions: for MIC, strain ID Q: broth microdilution, in µg/mL (unit assumed); for MIC: Table 10, Strain ID R (Table 8): Streptococcus pneumoniae Stpn_Erm S 4297, unit assumed
Outline: as §1

[7] = test system: Enterococcus faecalis Enfa_bc 11148-2; format: cell-based; conditions: in µg/mL (unit assumed); for MIC, strain ID F: broth microdilution; for MIC: Table 10, Strain ID F (Table 8): Enterococcus faecalis Enfa_bc 11148-2
Method: (§2) Strains. The bacterial isolates listed in Table 8 were cultivated from −70° C. frozen stocks by two consecutive overnight passages (P1, P2) at 35° C. on 5% blood agar (Remel, Lenexa, Kans.). Chocolate agar (Remel) is used for Haemophilus influenzae. H. influenzae and Streptococcus pneumoniae are incubated in 5-10% CO2
(§3) Drug Stock Preparation. To determine the amount of solvent to be used to give the desired final concentration, the formula “weight obtained in mg/final concentration in mg/ml” will be used. It will give the amount of solvent in ml needed to be added to give the desired concentration. For example, if 2.5 mg/ml is the desired concentration and the weight of compound is 13.7 mg, then the amount of solvent to be added is […]. Methanol is used as the solvent to dissolve the test compounds. Further dilution of stock is done in sterile, deionized water. Drug stocks are kept frozen at −70° C., protected from light.
(§4) Susceptibility Testing. MICs are determined by the broth microdilution method in accordance with the NCCLS guidelines. In brief, organism suspensions are adjusted to a 0.5 McFarland standard to yield a final inoculum between 3×10^5 and 7×10^5 CFU/ml. Drug dilutions and inocula are made in sterile, cation adjusted Mueller-Hinton Broth (CAMHB) (Remel) for all but S. pneumoniae [CAMHB with 2-5% lysed horse blood (Remel)] and H. influenzae [Haemophilus Test Medium (Remel)]. An inoculum volume of 100 μl is added to wells containing 100 μl of broth with 2-fold serial dilutions of drug. All inoculated microdilution trays are incubated in ambient air at 35° C. for 18-24 hours, except for S. pneumoniae, and H. influenzae (both at 5-10% CO2).
(§5) Following appropriate incubation, the MIC is determined and the MIC is defined as the lowest concentration of the drug that prevented visible growth. […] Antibacterial activity of representative compounds of the invention were compared against telitromycin.

[8] = test system: Haemophilus influenzae Hain_2762; format: cell-based; conditions: in µg/mL (unit assumed); for MIC, strain ID L: broth microdilution; for MIC: Table 10, Strain ID L (Table 8): Haemophilus influenzae Hain_2762
Method: as §2, §3, §4, §5

[9] = test system: Haemophilus influenzae Hain_953460299-3; format: cell-based; conditions: in µg/mL (unit assumed); for MIC, strain ID K: broth microdilution; for MIC: Table 10, Strain ID K (Table 8): Haemophilus influenzae Hain_953460299-3
Method: as §2, §3, §4, §5

[10] = test system: Haemophilus influenzae Hain_960730503-3; format: cell-based; conditions: in µg/mL (unit assumed); for MIC, strain ID I: broth microdilution; for MIC: Table 10, Strain ID I (Table 8): Haemophilus influenzae Hain_960730503-3
Method: as §2, §3, §4, §5

[11] = test system: Haemophilus influenzae Hain_960820544-3; format: cell-based; conditions: in µg/mL (unit assumed); for MIC, strain ID J: broth microdilution; for MIC: Table 10, Strain ID J (Table 8): Haemophilus influenzae Hain_960820544-3
Method: as §2, §3, §4, §5

[12] = test system: Staphylococcus aureus Stau_33591; format: cell-based; conditions: unit assumed; for MIC, strain ID B: broth microdilution; for MIC: Table 10, Strain ID B (Table 8): Staphylococcus aureus Stau_33591
Method: as §2, §3, §4, §5

[13] = test system: Streptococcus pyogenes Stpy_8668; format: cell-based; parameters: MIC, strain ID G: unit not given beside the values; conditions: for MIC, strain ID G: broth microdilution; for MIC: Table 10, Strain ID G (Table 8): Streptococcus pyogenes Stpy_8668
Outline: as §1

[14] = test system: Streptococcus pneumoniae Stpn_49619; format: cell-based; parameters: MIC, strain ID M: unit not given beside the values; conditions: for MIC, strain ID M: broth microdilution; for MIC: Table 10, Strain ID M (Table 8): Streptococcus pneumoniae Stpn_49619
Outline: as §1

[15] = test system: Streptococcus pneumoniae Stpn_297-749; format: cell-based; parameters: MIC, strain ID N: unit not given here; conditions: for MIC, strain ID N: broth microdilution; for MIC: Table 10, Strain ID N (Table 8): Streptococcus pneumoniae Stpn_297-749
Outline: as §1

[16] = test system: Streptococcus pneumoniae Stpn_280-962; format: cell-based; parameters: MIC, strain ID O: unit not given beside the values; conditions: for MIC, strain ID O: broth microdilution; for MIC: Table 10, Strain ID O (Table 8): Streptococcus pneumoniae Stpn_280-962
Outline: as §1

[17] = test system: S. pneumoniae Stpn_Erm 6849; format: cell-based, Streptococcus pneumoniae; conditions: strain ID P; broth microdilution; in µg/mL (unit assumed)
Outline: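 S. pneumoniae MIC by NCCLS broth microdilution in cation-adjusted Mueller-Hinton broth with 2-5% lysed horse blood, inoculum 3×10^5–7×10^5 CFU/ml, 2-fold drug dilutions. Incubated 18-24 hours at 35° C. in 5-10% CO2; MIC is lowest concentration preventing visible growth.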

[18] = test system: Streptococcus pneumoniae Stpn_Mef S 3427; format: cell-based; conditions: Table 10, Strain ID Q (Table 8): Streptococcus pneumoniae Stpn_Mef S 3427; in µg/mL (unit assumed)
Outline: as §1

[19] = test system: Streptococcus pneumoniae Stpn_Mef 5654; format: cell-based; conditions: Table 10, Strain ID P (Table 8): Streptococcus pneumoniae Stpn_Mef 5654; in µg/mL (unit assumed)
Outline: as §1

SMILES	MIC, strain ID E ([1]; in µg/mL (unit assumed))	MIC, strain ID H [2] [µg/mL]	MIC, strain ID A [3]	MIC, strain ID C [4]	MIC, strain ID D [5]	MIC, strain ID Q [6]	MIC, strain ID F [7]	MIC, strain ID L [8]	MIC, strain ID K [9]	MIC, strain ID I [10]	MIC, strain ID J [11]	MIC, strain ID B [12] [µg/mL]	MIC, strain ID G [13]	MIC, strain ID M [14]	MIC, strain ID N [15]	MIC, strain ID O [16]	MIC, strain ID P [17]	MIC [2] [µg/mL]	MIC [3]	MIC [4]	other results
C=C[C@]12OC(=O)N(CCCCn3cnc(-c4cnccc4OC)c3)[C@@H]1[C@@H](C)C(=O)[C@H](C)C[C@](C)(OC)[C@H](OC1O[C@H](C)C[C@H](N(C)C)[C@H]1O)[C@@H](C)C(=O)[C@@H](C)C(=O)O[C@@H]2CC (some centres unmarked) [XXXV]	0.1	6.25 (≈ 7.32 µM)	0.2	0.1	0.1	0.2	0.78	1.56	6.25	6.25	6.25	> 50	=0.05	=0.05	=0.05	=0.05	0.78				
C=C[C@]12OC(=O)N(CCCCn3cnc(-c4cccnc4Cl)c3)[C@@H]1[C@@H](C)C(=O)[C@H](C)C[C@](C)(OC)[C@H](OC1O[C@H](C)C[C@H](N(C)C)[C@H]1O)[C@@H](C)C(=O)[C@@H](C)C(=O)O[C@@H]2CC (some centres unmarked) [XXXVI]	0.1	3.13 (≈ 3.65 µM)	0.2	0.1	0.2	0.1	1.56	1.56	6.25	6.25	6.25	> 50	=0.05	=0.05	=0.05	=0.05	0.78				
C#C[C@]12OC(=O)N(CCCCn3cnc(-c4ccc(OC)nc4)c3)[C@@H]1[C@@H](C)C(=O)[C@H](C)C[C@](C)(OC)[C@H](OC1O[C@H](C)C[C@H](N(C)C)[C@H]1O)[C@@H](C)C(=O)[C@@H](C)C(=O)O[C@@H]2CC (some centres unmarked) [XXXII]	0.1	6.25 (≈ 7.34 µM)	0.2	0.1	0.2	0.2	1.56	1.56	12.5	12.5	12.5	> 50	=0.05	=0.05	=0.05	=0.05	0.78				
CC[C@H]1OC(=O)[C@H](C)C(=O)[C@H](C)[C@@H](OC2O[C@H](C)C[C@H](N(C)C)[C@H]2O)[C@@](C)(OC)C[C@@H](C)C(=O)[C@H](C)[C@H]2N(CCCCn3cnc(-c4ccc(Cl)nc4)c3)C(=O)O[C@]12CC (some centres unmarked) [XXI]																		3.13 (≈ 3.64 µM)	0.1	0.1	MIC [1]: =0.05; MIC [5]: 0.1; MIC [6]: 0.1 µg/mL (≈ 0.116 µM); MIC [18]: 0.2; MIC [7]: 1.56; MIC [8]: 0.78; MIC [9]: 6.25; MIC [10]: 6.25; MIC [11]: 6.25; MIC [12]: > 50 µg/mL; MIC [13]: =0.05; MIC [14]: =0.05; MIC [15]: =0.05; MIC [16]: =0.05; MIC [19]: 0.78
C=C[C@]12OC(=O)N(CCCCn3cnc(-c4ccc(Cl)nc4)c3C)[C@@H]1[C@@H](C)C(=O)[C@H](C)C[C@](C)(OC)[C@H](OC1O[C@H](C)C[C@H](N(C)C)[C@H]1O)[C@@H](C)C(=O)[C@@H](C)C(=O)O[C@@H]2CC (some centres unmarked) [XXXVII]	0.1	6.25 (≈ 7.16 µM)	0.2	0.2	0.2	0.2	0.78	1.56	6.25	12.5	6.25	> 50	=0.05	=0.05	=0.05	=0.05	0.78				
CC[C@H]1OC(=O)[C@H](C)C(=O)[C@H](C)[C@@H](OC2O[C@H](C)C[C@H](N(C)C)[C@H]2O)[C@@](C)(OC)C[C@@H](C)C(=O)[C@H](C)[C@H]2N(CCCCn3cnc(-c4ccc(C)nc4)c3)C(=O)O[C@]12CC (some centres unmarked) [XIII]																		6.25 (≈ 7.44 µM)	0.4	0.2	MIC ([1]; in µg/mL (unit assumed)): 0.2; MIC [5]: 0.4; MIC [6]: 0.2 µg/mL (≈ 0.238 µM); MIC [18]: 0.2; MIC [7]: 3.13; MIC [8]: 1.56; MIC [9]: 6.25; MIC [10]: 6.25; MIC [11]: 6.25; MIC [12]: > 50 µg/mL; MIC [13]: =0.05; MIC [14]: =0.05; MIC [15]: =0.05; MIC [16]: =0.05; MIC [19]: 0.78

Reference: US7332476B2, “Pyridyl substituted ketolide antibiotics” (Novartis AG, priority 2003, dated 2008)
